# Laboratory results published in DBAASP.
# Columns and labels:
# Test in all cases: ≥ marks a high value that may be exact or a test limit, other limits are often not marked, values filed in µg/mL are converted to µM
# [1] = test system: Vibrio harveyi BCRC 13812
# [2] = test system: Staphylococcus sp. BCRC 10451
# [3] = test system: Staphylococcus aureus BCRC 10780
# Vibrio alginolyticus = test system: Vibrio alginolyticus
# [4] = test system: Streptococcus pneumoniae BCRC 10794
# [5] = test system: Franconibacter helveticus DSM 18396
# [6] = test system: Kocuria rhizophila DSM 348
# [7] = test system: Bacillus subtilis DSM 347
# [8] = test system: Escherichia coli DH5alpha
# [9] = test system: Bacillus anthracis Sterne 34F2
# [10] = test system: Bacillus subtilis var. niger ATCC 9372
# Escherichia coli K91BK = test system: Escherichia coli K91BK
# [11] = test system: Bacillus subtilis ATCC 9372
# [12] = test system: Burkholderia thailandensis
# [13] = test system: Proteus mirabilis CICC 22931
# [14] = test system: Staphylococcus aureus AS1.72
# [15] = test system: Enterococcus faecium CGMCC 1.2334
# [16] = test system: Klebsiella pneumoniae subsp. pneumoniae CGMCC 1.176
# Escherichia coli AS1.349 = test system: Escherichia coli AS1.349
# [17] = test system: Enterococcus faecalis CGMCC 1.595
# [18] = test system: Pseudomonas aeruginosa CGMCC 1.860
# [19] = test system: Enterobacter cloacae CGMCC 1.58
# [20] = test system: Staphylococcus epidermidis CICC 23664
# Bacillus cereus AS1.126 = test system: Bacillus cereus AS1.126
# [21] = test system: Klebsiella aerogenes CGMCC 1.876
# [22] = test system: Lactococcus lactis AS1.1690
# [23] = test system: Acinetobacter baumannii CICC 22934
# [24] = test system: Listeria monocytogenes LO28
# [25] = test system: Cronobacter sakazakii DPC 6440
structure (smiles),measurement,setting,value
CC[C@H](C)[C@H](NC(=O)[C@H](Cc1ccccc1)NC(C)=O)C(=O)N[C@@H](Cc1ccccc1)C(=O)N[C@@H](Cc1cnc[nH]1)C(=O)N[C@H](C(=O)N[C@H](C(=O)N[C@@H](CCCCN)C(=O)NCC(=O)N[C@@H](CC(C)C)C(=O)N[C@@H](Cc1ccccc1)C(N)=O)[C@@H](C)CC)[C@@H](C)CC [FIFHIIKGLF],MIC,[1],5.06 µM
same,MIC,[2],5.06 µM
same,MIC,[3],5.06 µM
same,MIC,Vibrio alginolyticus,5.06 µM
CC[C@H](C)[C@H](NC(=O)[C@H](Cc1ccccc1)NC(=O)CNC(C)=O)C(=O)N[C@@H](Cc1ccccc1)C(=O)N[C@@H](Cc1cnc[nH]1)C(N)=O [GFIFH],MIC,[3],≥ 161 µM
same,MIC,[4],≥ 161 µM
CC[C@H](C)[C@H](NC(=O)CN)C(=O)NCC(=O)N[C@@H](CCCCN)C(=O)N[C@@H](Cc1ccccc1)C(=O)N[C@@H](CC(C)C)C(=O)N[C@@H](Cc1cnc[nH]1)C(=O)N[C@@H](CO)C(=O)N[C@@H](C)C(=O)N[C@@H](CCCCN)C(=O)N[C@@H](CCCCN)C(=O)N[C@@H](C)C(=O)NCC(=O)N[C@@H](CCCCN)C(=O)N[C@@H](C)C(=O)N[C@@H](Cc1ccccc1)C(=O)N[C@H](C(=O)NCC(=O)N[C@@H](CCC(=O)O)C(=O)N[C@H](C(=O)N[C@@H](CCSC)C(=O)N[C@@H](CC(N)=O)C(=O)N[C@@H](CO)C(=O)O)[C@@H](C)CC)C(C)C [GIGKFLHSAKKAGKAFVGEIMNS],MIC,[5],≥ 64 µM
same,MIC,[6],≥ 64 µM
same,MIC,[7],8 µM
same,MIC,[8],≥ 64 µM
CC(=O)NCC(=O)N[C@@H](Cc1c[nH]c2ccccc12)C(=O)NCC(=O)N[C@@H](CO)C(=O)N[C@@H](Cc1ccccc1)C(=O)N[C@@H](Cc1ccccc1)C(=O)N[C@@H](CCCCN)C(=O)N[C@@H](CCCCN)C(=O)N[C@@H](C)C(=O)N[C@@H](C)C(=O)N[C@@H](Cc1cnc[nH]1)C(=O)N[C@H](C(=O)NCC(=O)N[C@@H](CCCCN)C(=O)N[C@@H](Cc1cnc[nH]1)C(=O)N[C@H](C(=O)NCC(=O)N[C@@H](CCCCN)C(=O)N[C@@H](C)C(=O)N[C@@H](C)C(=O)N[C@@H](CC(C)C)C(=O)N[C@H](C(=O)N[C@@H](Cc1cnc[nH]1)C(=O)N[C@@H](Cc1ccc(O)cc1)C(=O)N[C@@H](CC(C)C)C(N)=O)[C@@H](C)O)C(C)C)C(C)C [GWGSFFKKAAHVGKHVGKAALTHYL],MIC,[9],≥ 79.4 µM
same,MIC,[10],17.7 µM
same,MIC,Escherichia coli K91BK,≥ 100 µM
CC[C@H](C)[C@H](NC(=O)[C@H](CCCN=C(N)N)NC(=O)[C@H](CC(C)C)NC(=O)[C@H](CCC(N)=O)NC(=O)[C@H](CCCCN)NC(=O)[C@H](CC(C)C)NC(=O)[C@H](CC(C)C)NC(=O)[C@H](CC(C)C)NC(=O)[C@@H](NC(=O)[C@H](CCCCN)NC(=O)[C@H](CC(=O)O)NC(=O)[C@H](C)NC(=O)[C@@H](NC(=O)[C@H](CCCCN)NC(=O)[C@H](CCCCN)NC(=O)[C@H](CC(=O)O)NC(=O)[C@@H](NC(=O)[C@H](Cc1cnc[nH]1)NC(C)=O)C(C)C)C(C)C)C(C)C)C(=O)N[C@@H](CCSC)C(=O)N[C@@H](CCCN=C(N)N)C(=O)N[C@@H](CC(C)C)C(=O)N[C@@H](CC(C)C)C(=O)N[C@H](C(=O)N[C@@H](CCCN=C(N)N)C(=O)N[C@@H](CC(C)C)C(N)=O)[C@@H](C)O [HVDKKVADKVLLLKQLRIMRLLTRL],MIC,[11],16 µM
same,MIC,[9],≥ 35 µM
same,MIC,[12],≥ 50 µM
CC[C@H](C)[C@H](N)C(=O)N[C@@H](CCCCN)C(=O)N[C@@H](CCCCN)C(=O)N[C@H](C(=O)N[C@@H](Cc1c[nH]c2ccccc12)C(=O)N[C@@H](CO)C(=O)N[C@@H](CCCCN)C(=O)N[C@H](C(=O)N[C@@H](CCCCN)C(=O)N[C@@H](CCCCN)C(=O)N[C@@H](Cc1c[nH]c2ccccc12)C(=O)N[C@@H](CC(C)C)C(=O)N[C@@H](CCCCN)C(=O)O)[C@@H](C)CC)[C@@H](C)CC [IKKIWSKIKKWLK],MIC,[13],≥ 100 µM
same,MIC,[14],2.5 µM
same,MIC,[15],5 µM
same,MIC,[16],≥ 100 µM
same,MIC,Escherichia coli AS1.349,2.5 µM
same,MIC,[17],2.5 µM
same,MIC,[18],15.6 µM
same,MIC,[19],≥ 100 µM
same,MIC,[20],2.5 µM
same,MIC,Bacillus cereus AS1.126,18.8 µM
CC[C@H](C)[C@H](NC(=O)CNC(=O)[C@H](CCCCN)NC(=O)[C@H](CCCN=C(N)N)NC(=O)[C@@H](NC(=O)[C@@H](NC(=O)[C@H](CCCN=C(N)N)NC(=O)[C@H](CCCN=C(N)N)NC(=O)[C@H](CC(C)C)NC(=O)[C@H](CC(N)=O)NC(=O)[C@H](CCCCN)NC(C)=O)[C@@H](C)CC)[C@@H](C)CC)C(=O)N[C@@H](Cc1cnc[nH]1)C(=O)N[C@H](C(=O)N[C@H](C(=O)N[C@@H](CCCCN)C(=O)N[C@@H](CCCCN)C(=O)N[C@@H](Cc1ccc(O)cc1)C(=O)NCC(N)=O)[C@@H](C)CC)[C@@H](C)CC [KNLRRIIRKGIHIIKKYG],MIC,[9],≥ 100 µM
same,MIC,[10],12.5 µM
same,MIC,Escherichia coli K91BK,≥ 100 µM
same,MIC,[12],≥ 100 µM
CC(C)[C@H](NC(=O)[C@H](CCCCN)NC(=O)[C@@H](N)CO)C(=O)N[C@@H](Cc1c[nH]c2ccccc12)C(=O)N[C@@H](CCCN=C(N)N)C(=O)N[C@@H](Cc1cnc[nH]1)C(=O)N[C@@H](Cc1c[nH]c2ccccc12)C(=O)N[C@@H](CCCN=C(N)N)C(=O)N[C@@H](CCCN=C(N)N)C(=O)N[C@@H](Cc1ccccc1)C(=O)N[C@@H](Cc1c[nH]c2ccccc12)C(=O)N[C@@H](Cc1cnc[nH]1)C(=O)N[C@@H](CCCN=C(N)N)C(=O)N[C@@H](C)C(=O)N[C@@H](Cc1cnc[nH]1)C(=O)N[C@@H](CCCN=C(N)N)C(=O)N[C@@H](CCCCN)C(=O)N[C@@H](CCCCN)C(=O)O [SKVWRHWRRFWHRAHRKK],MIC,[21],≥ 100 µM
same,MIC,[22],1.98 µM
same,MIC,[14],3.86 µM
same,MIC,[15],2.9 µM
same,MIC,[16],≥ 100 µM
same,MIC,Escherichia coli AS1.349,6.25 µM
same,MIC,[17],1.81 µM
same,MIC,[18],1.59 µM
same,MIC,[19],≥ 100 µM
same,MIC,[20],7 µM
same,MIC,[23],7.81 µM
same,MIC,Bacillus cereus AS1.126,3.91 µM
CC[C@H](C)[C@H](NC(=O)[C@@H](N)Cc1c[nH]c2ccccc12)C(=O)N[C@@H](CCC(N)=O)C(=O)N1CCC[C@H]1C(=O)N[C@@H](CCCCN)C(=O)N[C@H](C(=O)N[C@@H](CCCCN)C(=O)N[C@@H](C)C(=O)N[C@H](C(=O)N1CCC[C@H]1C(=O)N[C@@H](Cc1ccc(O)cc1)C(=O)N[C@H](C(=O)N[C@@H](CCCN=C(N)N)C(=O)N[C@@H](Cc1ccc(O)cc1)C(=O)N[C@@H](CC(C)C)C(=O)O)C(C)C)[C@@H](C)CC)[C@@H](C)O [WIQPKTKAIPYVRYL],MIC,[24],19.5 µM
same,MIC,[25],≥ 78.1 µM
CC[C@H](C)[C@H](NC(=O)[C@@H](N)Cc1c[nH]c2ccccc12)C(=O)N[C@@H](CCC(N)=O)C(=O)N1CCC[C@H]1C(=O)N[C@@H](CCCCN)C(=O)N[C@H](C(=O)N[C@@H](CCCCN)C(=O)N[C@H](C(=O)N[C@H](C(=O)N1CCC[C@H]1C(=O)N[C@@H](Cc1ccc(O)cc1)C(=O)N[C@H](C(=O)O)C(C)C)[C@@H](C)CC)C(C)C)[C@@H](C)O [WIQPKTKVIPYV],MIC,[24],≥ 156 µM
same,MIC,[25],≥ 625 µM
